Patent US20210220300A1 (Strongbridge Dublin Limited, priority 2019, published 2021)
Like-named read-outs stand apart in the source and are kept apart here.

What was measured:
MATE1 = biological target: T1, MATE1 (Homo sapiens, UniProt Q96FL8); details: pH 8.5
T1 sequence (Q96FL8 1-570): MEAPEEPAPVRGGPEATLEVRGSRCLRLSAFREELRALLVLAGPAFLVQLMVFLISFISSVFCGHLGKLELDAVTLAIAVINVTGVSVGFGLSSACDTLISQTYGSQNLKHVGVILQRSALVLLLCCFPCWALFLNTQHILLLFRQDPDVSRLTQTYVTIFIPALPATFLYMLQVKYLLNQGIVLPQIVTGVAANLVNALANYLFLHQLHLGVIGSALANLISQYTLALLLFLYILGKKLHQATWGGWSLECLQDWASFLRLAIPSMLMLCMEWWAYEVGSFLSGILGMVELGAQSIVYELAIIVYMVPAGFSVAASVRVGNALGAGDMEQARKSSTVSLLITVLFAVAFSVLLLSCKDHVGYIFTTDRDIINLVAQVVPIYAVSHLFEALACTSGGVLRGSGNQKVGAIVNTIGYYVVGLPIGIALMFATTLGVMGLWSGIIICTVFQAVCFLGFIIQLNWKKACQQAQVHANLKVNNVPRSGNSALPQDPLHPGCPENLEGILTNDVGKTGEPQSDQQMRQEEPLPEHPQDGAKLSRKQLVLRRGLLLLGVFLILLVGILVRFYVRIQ
Method: (§1) [^14C]-Metformin (1 mM) was provided as a solid and was prepared in Hank's balanced salt solution (HBSS).
(§2) Cells were plated onto standard 24-well tissue culture plates in cell culture medium 1 to 3 days before the experiment. MATE1 and MATE2-K and control cells were incubated with butyric acid (10 mM) for 24 hours before the experiment to inhibit suppression of the transporter.

MATE2-K = MATE2-K (Homo sapiens, UniProt Q86VL8); details: pH 8.5
Chain of MATE2-K (Q86VL8 1-566 isoform Q86VL8-3): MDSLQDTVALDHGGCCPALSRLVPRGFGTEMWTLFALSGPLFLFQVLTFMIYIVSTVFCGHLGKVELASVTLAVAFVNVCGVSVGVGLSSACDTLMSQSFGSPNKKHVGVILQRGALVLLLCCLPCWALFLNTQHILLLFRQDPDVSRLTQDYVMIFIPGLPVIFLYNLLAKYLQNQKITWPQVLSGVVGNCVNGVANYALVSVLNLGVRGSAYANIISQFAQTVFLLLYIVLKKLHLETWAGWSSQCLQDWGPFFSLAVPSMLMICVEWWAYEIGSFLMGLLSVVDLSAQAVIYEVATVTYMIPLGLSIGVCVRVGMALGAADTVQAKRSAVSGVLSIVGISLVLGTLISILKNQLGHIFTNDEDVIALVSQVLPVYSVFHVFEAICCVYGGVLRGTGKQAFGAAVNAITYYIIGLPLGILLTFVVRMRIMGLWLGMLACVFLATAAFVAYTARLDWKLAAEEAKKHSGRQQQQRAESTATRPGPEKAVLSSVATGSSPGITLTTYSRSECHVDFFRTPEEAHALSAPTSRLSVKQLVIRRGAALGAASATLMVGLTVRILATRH
Method: as §1, §2

BCRP = BCRP inhibition: bidirectional transport of prazosin across MDCKII BCRP and control cells; details: for % control: corrected efflux ratio, prazosin 1 μM
Text: MDCKII P-gp, MDCKII BCRP and control MDCKII cells were purchased from the Netherlands Cancer Institute.

OCT1 = biological target: T2, OCT1 (Homo sapiens, UniProt O15245); details: for Uptake (Average ± SD), Control / Uptake (Average ± SD), OCT1 / Background corrected uptake rate: human, pH 7.4
T2 sequence (O15245 1-554): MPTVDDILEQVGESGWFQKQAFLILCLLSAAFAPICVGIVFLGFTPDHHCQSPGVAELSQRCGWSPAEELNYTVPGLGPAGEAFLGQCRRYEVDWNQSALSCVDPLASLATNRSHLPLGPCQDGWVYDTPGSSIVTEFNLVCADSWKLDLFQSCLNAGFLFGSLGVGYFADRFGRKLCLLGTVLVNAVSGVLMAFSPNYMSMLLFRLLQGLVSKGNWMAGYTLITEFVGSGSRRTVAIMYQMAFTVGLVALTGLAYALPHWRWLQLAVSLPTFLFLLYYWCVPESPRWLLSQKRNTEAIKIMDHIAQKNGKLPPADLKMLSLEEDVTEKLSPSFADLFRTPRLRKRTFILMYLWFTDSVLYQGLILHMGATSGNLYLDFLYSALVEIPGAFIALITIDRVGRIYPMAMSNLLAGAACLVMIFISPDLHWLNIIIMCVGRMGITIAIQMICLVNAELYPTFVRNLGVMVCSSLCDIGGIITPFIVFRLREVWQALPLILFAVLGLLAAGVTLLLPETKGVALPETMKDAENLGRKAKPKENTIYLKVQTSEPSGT
Method: as §1, §2

P-gp [1] = biological target: T3, P-gp (Homo sapiens, UniProt P08183)
T3 sequence (P08183 whole entry): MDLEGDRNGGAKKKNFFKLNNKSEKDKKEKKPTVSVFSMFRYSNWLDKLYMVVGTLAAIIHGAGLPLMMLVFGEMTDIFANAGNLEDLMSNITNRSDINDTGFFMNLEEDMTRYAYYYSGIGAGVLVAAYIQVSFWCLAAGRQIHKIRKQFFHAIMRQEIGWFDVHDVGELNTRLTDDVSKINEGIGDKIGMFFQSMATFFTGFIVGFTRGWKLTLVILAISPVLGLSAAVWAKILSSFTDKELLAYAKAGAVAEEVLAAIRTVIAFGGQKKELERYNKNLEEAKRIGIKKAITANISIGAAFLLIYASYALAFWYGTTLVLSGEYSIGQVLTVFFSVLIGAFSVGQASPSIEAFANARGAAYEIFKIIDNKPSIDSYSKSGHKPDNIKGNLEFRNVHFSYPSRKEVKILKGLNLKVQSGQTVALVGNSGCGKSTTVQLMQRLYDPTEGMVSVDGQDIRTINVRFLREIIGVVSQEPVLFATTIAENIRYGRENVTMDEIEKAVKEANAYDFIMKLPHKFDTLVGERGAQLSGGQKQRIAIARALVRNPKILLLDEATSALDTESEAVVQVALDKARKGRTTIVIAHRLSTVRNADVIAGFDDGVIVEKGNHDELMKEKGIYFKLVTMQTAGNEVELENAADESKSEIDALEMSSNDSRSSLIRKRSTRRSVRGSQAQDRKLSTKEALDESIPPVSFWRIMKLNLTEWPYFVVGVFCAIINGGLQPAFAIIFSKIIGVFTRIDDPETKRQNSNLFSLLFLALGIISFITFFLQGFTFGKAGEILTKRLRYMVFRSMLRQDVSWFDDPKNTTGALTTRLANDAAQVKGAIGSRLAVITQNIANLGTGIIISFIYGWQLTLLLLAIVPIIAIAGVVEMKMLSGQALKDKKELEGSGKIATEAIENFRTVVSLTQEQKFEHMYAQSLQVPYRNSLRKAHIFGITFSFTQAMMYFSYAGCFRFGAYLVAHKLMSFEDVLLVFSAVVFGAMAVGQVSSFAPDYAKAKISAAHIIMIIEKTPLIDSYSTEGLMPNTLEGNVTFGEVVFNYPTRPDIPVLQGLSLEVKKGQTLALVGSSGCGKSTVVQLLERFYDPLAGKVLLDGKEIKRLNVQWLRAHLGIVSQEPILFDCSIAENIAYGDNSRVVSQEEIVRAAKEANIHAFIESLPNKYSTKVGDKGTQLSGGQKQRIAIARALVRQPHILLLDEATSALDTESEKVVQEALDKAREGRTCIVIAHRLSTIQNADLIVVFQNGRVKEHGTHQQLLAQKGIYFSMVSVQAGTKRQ

[2] = cited from earlier work
[3] = cited from earlier work; remark: listed apart in the source
P-gp [4] = biological target: T3, P-gp; test: P-gp inhibition: bidirectional transport of digoxin across Caco-2 cells

SMILES: CN/C(=N/CCSCc1nc[nH]c1C)NC#N [Cimetidine]
- Uptake (Average ± SD), Control (MATE1; 10 μM): 5.20 ± 0.63 pmol/mg protein
- Uptake (Average ± SD), MATE1 (MATE1; 10 μM): 85.2 ± 7.8 pmol/mg protein
- Uptake (Average ± SD), Control (MATE2-K; 300 μM): 7.34 ± 0.20 pmol/mg protein
- Uptake (Average ± SD), MATE2-K (MATE2-K; 300 μM): 32.3 ± 11.7 pmol/mg protein

SMILES: NS(=O)(=O)c1cc(Cl)c(Cl)c(S(N)(=O)=O)c1 [Dichlorphenamide, 4,5-dichloro-1,3-benzenedisulfonamide]
- % control (BCRP; inhibitor 1000 μM): 60.0%
- Control cells Recovery (%) A:B (BCRP; dog, MDCK, 120 min, 1000 μM): 84.7%
- Control cells Recovery (%) B:A (BCRP; dog, MDCK, 120 min, 1000 μM): 77.0%
- MDCKII-BCRP cells Recovery (%) A:B (BCRP; human, 120 min, 1000 μM): 93.0%
- MDCKII-BCRP cells Recovery (%) B:A (BCRP; human, 120 min, 1000 μM): 83.7%
- Uptake (Average ± SD), Control (MATE1; 1 μM): 6.66 ± 1.31 pmol/mg protein
- Uptake (Average ± SD), MATE1 (MATE1; 1 μM): 436 ± 23 pmol/mg protein
- Uptake (Average ± SD), Control (MATE1; 3 μM): 6.75 ± 1.65 pmol/mg protein
- Uptake (Average ± SD), MATE1 (MATE1; 3 μM): 401 ± 7 pmol/mg protein
- Uptake (Average ± SD), Control (MATE1; 10 μM): 7.43 ± 1.34 pmol/mg protein
- Uptake (Average ± SD), MATE1 (MATE1; 10 μM): 406 ± 12 pmol/mg protein
- Uptake (Average ± SD), Control (MATE1; 30 μM): 6.79 ± 0.89 pmol/mg protein
- Uptake (Average ± SD), MATE1 (MATE1; 30 μM): 432 ± 10 pmol/mg protein
- Uptake (Average ± SD), Control (MATE1; 100 μM): 7.52 ± 0.96 pmol/mg protein
- Uptake (Average ± SD), MATE1 (MATE1; 100 μM): 421 ± 17 pmol/mg protein
- Uptake (Average ± SD), Control (MATE1; 300 μM): 5.56 ± 0.16 pmol/mg protein
- Uptake (Average ± SD), MATE1 (MATE1; 300 μM): 398 ± 17 pmol/mg protein
- Uptake (Average ± SD), Control (MATE1; 1000 μM): 5.52 ± 0.21 pmol/mg protein
- Uptake (Average ± SD), MATE1 (MATE1; 1000 μM): 379 ± 13 pmol/mg protein
- Uptake (Average ± SD), Control (MATE2-K; 1 μM): 9.21 ± 0.93 pmol/mg protein
- Uptake (Average ± SD), MATE2-K (MATE2-K; 1 μM): 149 ± 29 pmol/mg protein
- Uptake (Average ± SD), Control (MATE2-K; 3 μM): 9.44 ± 2.27 pmol/mg protein
- Uptake (Average ± SD), MATE2-K (MATE2-K; 3 μM): 159 ± 19 pmol/mg protein
- Uptake (Average ± SD), Control (MATE2-K; 10 μM): 8.28 ± 1.46 pmol/mg protein
- Uptake (Average ± SD), MATE2-K (MATE2-K; 10 μM): 113 ± 8 pmol/mg protein
- Uptake (Average ± SD), Control (MATE2-K; 30 μM): 8.51 ± 1.05 pmol/mg protein
- Uptake (Average ± SD), MATE2-K (MATE2-K; 30 μM): 124 ± 36 pmol/mg protein
- Uptake (Average ± SD), Control (MATE2-K; 100 μM): 9.21 ± 1.52 pmol/mg protein
- Uptake (Average ± SD), MATE2-K (MATE2-K; 100 μM): 137 ± 15 pmol/mg protein
- Uptake (Average ± SD), Control (MATE2-K; 300 μM): 8.86 ± 0.93 pmol/mg protein
- Uptake (Average ± SD), MATE2-K (MATE2-K; 300 μM): 166 ± 16 pmol/mg protein
- Uptake (Average ± SD), Control (MATE2-K; 1000 μM): 5.13 ± 0.40 pmol/mg protein
- Uptake (Average ± SD), MATE2-K (MATE2-K; 1000 μM): 106 ± 29 pmol/mg protein
- % control (OCT1; [14C]-tetraethylammonium bromide 5 μM, inhibitor 10 μM): 90.6%
- Uptake (Average ± SD), Control (OCT1; 1 μM): 4.28 ± 1.48 pmol/mg protein
- Uptake (Average ± SD), OCT1 (OCT1; 1 μM): 121 ± 11 pmol/mg protein
- Uptake (Average ± SD), Control (OCT1; 3 μM): 4.44 ± 1.97 pmol/mg protein
- Uptake (Average ± SD), OCT1 (OCT1; 3 μM): 125 ± 5 pmol/mg protein
- Uptake (Average ± SD), Control (OCT1; 10 μM): 4.28 ± 0.92 pmol/mg protein
- Uptake (Average ± SD), OCT1 (OCT1; 10 μM): 111 ± 4 pmol/mg protein
- Uptake (Average ± SD), Control (OCT1; 30 μM): 3.88 ± 0.48 pmol/mg protein
- Uptake (Average ± SD), OCT1 (OCT1; 30 μM): 122 ± 14 pmol/mg protein
- Uptake (Average ± SD), Control (OCT1; 100 μM): 4.12 ± 0.73 pmol/mg protein
- Uptake (Average ± SD), OCT1 (OCT1; 100 μM): 128 ± 6 pmol/mg protein
- Background corrected uptake rate (OCT1; 300 μM): 8.40 pmol/mg/min
- Uptake (Average ± SD), Control (OCT1; 300 μM): 3.88 ± 1.11 pmol/mg protein
- Uptake (Average ± SD), OCT1 (OCT1; 300 μM): 130 ± 10 pmol/mg protein
- Background corrected uptake rate (OCT1; 1000 μM): 5.00 pmol/mg/min
- Uptake (Average ± SD), Control (OCT1; 1000 μM): 2.99 ± 1.46 pmol/mg protein
- Uptake (Average ± SD), OCT1 (OCT1; 1000 μM): 77.9 ± 3.0 pmol/mg protein
- Papp A:B of digoxin (Average) (P-gp [1]; Caco-2): 0.337 (n = 2) × 10^−6 cm/sec
- % control (P-gp [1]; human, 120 min, 3 μM): 74.0%
- Solubility in dilute solutions of sodium carbonate and sodium hydroxide [2]: soluble
- Storage stability [3]: at least 36 months

SMILES: Cc1cccc(C)c1OCC(=O)N[C@@H](Cc1ccccc1)[C@@H](O)C[C@H](Cc1ccccc1)NC(=O)[C@H](C(C)C)N1CCCNC1=O [Lopinavir]
- % control (BCRP; inhibitor 30 μM): 0%

SMILES: CCc1nc(N)nc(N)c1-c1ccc(Cl)cc1 [Pyrimethamine]
- Background corrected uptake rate (MATE1; 0.1 μM): 11.7 pmol/mg/min
- Uptake (Average ± SD), Control (MATE1; 0.1 μM): 4.24 ± 0.72 pmol/mg protein
- Uptake (Average ± SD), MATE1 (MATE1; 0.1 μM): 62.8 ± 4.0 pmol/mg protein
- Background corrected uptake rate (MATE2-K; 0.3 μM): 14.0 pmol/mg/min
- Uptake (Average ± SD), Control (MATE2-K; 0.3 μM): 5.59 ± 0.88 pmol/mg protein
- Uptake (Average ± SD), MATE2-K (MATE2-K; 0.3 μM): 75.6 ± 16.7 pmol/mg protein

SMILES: C=C[C@H]1C[N@@]2CC[C@H]1C[C@@H]2[C@@H](O)c1ccnc2ccc(OC)cc12 [Quinidine]
- Background corrected uptake rate (OCT1; 100 μM): 1.64 pmol/mg/min

SMILES: C/C=C/C[C@@H](C)C(=O)[C@H]1C(=O)N[C@@H](C(C)C)C(=O)N(C)CC(=O)N(C)[C@@H](CC(C)C)C(=O)N[C@@H](C(C)C)C(=O)N(C)[C@@H](CC(C)C)C(=O)N[C@@H](C)C(=O)N[C@H](C)C(=O)N(C)[C@@H](CC(C)C)C(=O)N(C)[C@@H](CC(C)C)C(=O)N(C)[C@@H](C(C)C)C(=O)N1C [Valspodar]
- Papp A:B of digoxin (Average ± SD) (P-gp [4]): 9.12 ± 1.34 × 10^−6 cm/sec
- Papp B:A of digoxin (Average ± SD) (P-gp [4]): 10.0 ± 2.5 × 10^−6 cm/sec
